Experimental data as given in patent publication US20170354177A1, “ANTIFUNGAL COMPOSITION COMPRISING ANTIFUNGAL PEPTIDE AND TERPENE ALCOHOL” (MARUHA NICHIRO CORPORATION, priority 2014, published 2017).

Legend:
[1] = tested on: Candida albicans TIMM1768; assay: In vitro screening of material performing synergistic effect (10 min contact, crystal violet staining, absorbance 620 nm); assay type: cell-based; conditions: for synergistic effect by the combined use with a protamine hydrolysate: combined with protamine hydrolysate 0.125 or 2.0 mg/mL; for antibacterial activity in single use (relative absorbance, blank = 1): 0.008-1 mg/mL
From the text: Candida albicans TIMM1768
Hinokitiol (manufactured by Kiseitech Co., Ltd.), terpinen-4-ol (manufactured by Tokyo Chemical Industry, Co., Ltd.), geraniol (manufactured by Kanto Chemical Co., Inc.), menthol (manufactured by Wako Pure Chemical Industries, Ltd.), cinnamaldehyde (manufactured by Wako Pure Chemical Industries, Ltd.) and capric acid (manufactured by Wako Pure Chemical Industries, Ltd.) were individually dissolved in RPMI medium so that the concentration in a test material was 0.008, 0.04, 0.2, 1 mg/mL, and the protamine hydrolysate prepared according to Example 1 was dissolved so that the concentration of the protamine hydrolysate in a test material was 0, 0.125, 2.0 mg/mL, and the solutions were subjected to the test. Further, 0.002, 0.008, 0.031, 0.125, 0.5, 2, 8, 32 mg/mL solutions using the protamine hydrolysate singly were subjected to the test. Evaluation method
C. albicans TIMM1768 strain was added to a 96 well microplate each in an amount of 200 μL so that 2.5×10^5 cells/well, and cultured for 2.5 to 3.5 hours at 37° C. under 5% CO2. After cultivation, each medium was removed under suction, and each test material was added in an amount of 200 μL/well. After allowing to stand still at 37° C. for 10 minutes, each sample solution was removed under suction, and RPMI medium was added in an amount of 200 μL/well, and cultured for 2.5 hours at 37° C. under 5% CO2. After cultivation, each sample was stained with crystal violet and the absorbance at 620 nm was measured. The antibacterial activity was expressed in terms of the relative value of each experimental section when the blank absorbance was 1.
The results of in vitro evaluation when using a protamine hydrolysate and terpene alcohols in combination are shown in FIGS. 1 to 6, and the result of in vitro evaluation when using a protamine hydrolysate singly is shown in FIG. 7. In FIGS. 1 to 6, ♦ represents the result of single use of terpene alcohols, ▪ represents the result of the combined use with a protamine hydrolysate 0.125 mg/ml, and ▴ represents the result of the combined use with a protamine hydrolysate 2.0 mg/ml, respectively.

[2] = tested on: Candida albicans TIMM1768; assay: In vitro combined use of protamine hydrolysate and Hinokitiol (16 h culture, crystal violet), IC90 and FIC index; assay type: cell-based; conditions: TIMM1768, Pro 0, none printed in the table, read-out: IC90 of hinokitiol alone
Procedure: FIC index=A1/A0+B1/B0 (1) • A0: MIC when agent A is used alone • A1: MIC of agent A when agent A and agent B are used in combination • B0: MIC when agent B is used alone • B1: MIC of agent B when agent A and agent B are used in combination Evaluation of synergistic effect by FIC index • FIC≦0.5: synergistic effect • 0.5<FIC≦1.0: additive effect • 1.0<FIC≦2.0: no relation • 2.0<FIC: antagonistic effect
Hinokitiol (manufactured by Kiseitech Co., Ltd.) was dissolved in RPMI medium so that the concentration in each test material was 0, 0.004, 0.008, 0.016, 0.031, 0.063, 0.125, 0.25, 0.5, or 1 μg/mL, and the protamine hydrolysate prepared according to Example 1 was dissolved so that the concentration of the protamine hydrolysate in each test material was 0, 0.156, 0.313, 0.625, 1.25, 2.5, 5, or 10 μg/mL, and they were subjected to the test.
C. albicans TIMM1768 strain was diluted with RPMI medium so that 5.0×10^3 cells/m L, then, added to a 96 well microplate each in an amount of 100 μL. The protamine hydrolysate solution was added each in an amount of 50 μL/well, then, Hinokitiol was added each in an amount of 50 μL/well. After cultivation for 16 hours at 37° C. under 5% CO2, each sample was stained with crystal violet and the absorbance at 620 nm was measured.

Row | IC90 [2] [µg/mL] | SMILES | synergistic effect by the combined use with a protamine hydrolysate [1] | antibacterial activity in single use (relative absorbance, blank = 1) [1]
1 | – | O=CC=Cc1ccccc1 [Cinnamaldehyde, cinnamaldehyde, reference compound] | the synergistic effect by the combined use with a protamine hydrolysate was not recognized | little antibacterial activity
2 | 0.77 | CC(C)c1cccc(=O)c(O)c1 [Hinokitiol] | a synergistic effect of improving activity by the combined use with a protamine hydrolysate was recognized | showed an antibacterial activity even in the single use
3 | – | CCCCCCCCCC(=O)O [capric acid, reference compound] | the synergistic effect by the combined use with a protamine hydrolysate was not recognized | little antibacterial activity
4 | – | CC(C)=CCC/C(C)=C/CO [geraniol] | the activity was slightly improved by the combined use with a protamine hydrolysate | low activity
5 | – | CC1CCC(C(C)C)C(O)C1 (stereo not shown) [menthol] | the activity was slightly improved by the combined use with a protamine hydrolysate | low activity
6 | – | CC1=CCC(O)(C(C)C)CC1 (stereo not shown) [terpinen-4-ol] | the activity was slightly improved by the combined use with a protamine hydrolysate | low activity
